Results from US20120277209A1, “PYRAZINE COMPOUNDS AS PHOSPHODIESTERASE 10 INHIBITORS” (Amgen Inc., priority 2009, published 2012).

These compounds were tested against PDE10 (UniProt Q9Y233) (assay: PDE10 enzyme inhibition, IMAP TR-FRET assay (MPDE10A7 Enzyme Activity and Inhibition)). Conditions: IC50 class against PDE10; read-out: IC50.
Assay type: biochemical
Method in brief: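 PDE10A enzyme or tissue homogenate preincubated with compounds 30 min at room temperature, then fluorescein-labelled cAMP or cGMP added for 60 min. IMAP binding reagent stop, TR-FRET read. Values are mean IC50s, grouped into five potency classes.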

| Compound | IC50 [nM] |
| --- | --- |
| (6-fluoro-1-methyl-1H-benzo[d]imidazol-2-yl)(4-(3-(tetrahydro-2H-pyran-4-yl)pyrazin-2-yloxy)phenyl)methanone and (5-fluoro-1-methyl-1H-benzo[d]imidazol-2-yl)(4-(3-(tetrahydro-2H-pyran-4-yl)pyrazin-2-yloxy)phenyl)methanone [Example 185] | < 25 |

Same assay, conditions: PDE10 enzyme inhibition; average IC50 data for each compound; read-out: Average IC50

| IC50 [nM] | Compound |
| --- | --- |
| 1.83 | O=C(c1ccc(Oc2nccnc2C2(F)CCOCC2)cc1)c1nc2ccccc2[nH]1 [drawing 924] |
| 2.71 | CC(=O)N1CC(c2nccnc2Oc2ccc(C(=O)c3nc4ccccc4[nH]3)cc2)C1 [drawing 925] |
| 6.02 | CN1CCC(c2nccnc2Oc2ccc(C(=O)c3nc4ccccc4[nH]3)cc2)CC1=O (stereo not shown) [drawing 926] |
| 5.84 | COc1ncccc1-c1nccnc1Oc1ccc(C(=O)c2nc3cc(F)ccc3[nH]2)cc1 [drawing 931] |
| 1.85 | O=C(c1ccc(Oc2nccnc2C2CCSCC2)cc1)c1nc2ccccc2[nH]1 [drawing 932] |
| 7.08 | O=C(c1ccc(Oc2nccnc2-c2ccc[nH]c2=O)cc1)c1nc2ccccc2[nH]1 [drawing 938] |
| 2.95 | COc1ncc(F)cc1-c1nccnc1Oc1ccc(C(=O)c2nc3ccccc3[nH]2)cc1 [drawing 942] |
| 224 | COc1nc2ccccc2cc1-c1nccnc1Oc1ccc(C(=O)c2nc3ccccc3[nH]2)cc1 [drawing 943] |
| 2.9 | COc1ccccc1-c1nccnc1Oc1ccc(C(=O)c2nc3ccccc3[nH]2)cc1 [drawing 944] |
| 0.0365 | COCC(=O)N1CCC(c2nccnc2Oc2ccc(C(=O)c3nc4ccccc4[nH]3)cc2)CC1 [drawing 945] |
| 2.07 | Cc1ncccc1-c1nccnc1Oc1ccc(C(=O)c2nc3ccccc3[nH]2)cc1 [drawing 947] |
| 1.76 | O=C(c1ccc(Oc2nccnc2C2CCCC2)cc1)c1nc2ccccc2[nH]1 [drawing 949] |
| 7.76 | COc1ncccc1-c1nccnc1Oc1ccc(Nc2nc3cccc(F)c3s2)cc1 [drawing 950] |
| 0.577 | COc1ccc(-c2nccnc2Oc2ccc(C(=O)c3nc4ccccc4[nH]3)cc2)c(OC)n1 [drawing 955] |
| 8.78 | Cc1ncccc1-c1nccnc1Oc1ccc(C(=O)c2nc3ccccc3n2C)cc1 [drawing 957] |
| 0.489 | COc1cnccc1-c1nccnc1Oc1ccc(C(=O)c2nc3ccccc3[nH]2)cc1 [drawing 960] |
| 2.5 | O=C(c1ccc(Oc2nccnc2C2CCN(CCF)CC2)cc1)c1nc2ccccc2[nH]1 [drawing 963] |
| 0.0615 | COC(=O)N1CCC(c2nccnc2Oc2ccc(C(=O)c3nc4ccccc4[nH]3)cc2)CC1 [drawing 971] |
| 0.005 | C[C@@H](F)C(=O)N1CCC(c2nccnc2Oc2ccc(C(=O)c3nc4ccccc4[nH]3)cc2)CC1 [drawing 976] |
| 0.137 | C[C@H](F)C(=O)N1CCC(c2nccnc2Oc2ccc(C(=O)c3nc4ccccc4[nH]3)cc2)CC1 [drawing 977] |
| 0.533 | COc1ccncc1-c1nccnc1Oc1ccc(C(=O)c2nc3ccccc3[nH]2)cc1 [drawing 990] |
| 5.83 | COc1ncccc1-c1nccnc1Oc1ccc(C(=O)c2nc3ccccc3n2CCF)cc1 [drawing 994] |
| 1.43 | CN(C)CC(=O)N1CCC(c2nccnc2Oc2ccc(C(=O)c3nc4ccccc4[nH]3)cc2)CC1 [drawing 995] |
| 7.7 | O=C(c1ccc(Oc2nccnc2C2CCNCC2)cc1)c1nc2ccccc2[nH]1 [drawing 999] |

The next lines start with the compound.

| Compound | IC50 [nM] |
| --- | --- |
| FC1(c2nccnc2Oc2ccc(Nc3nc4ccccc4s3)cc2)CCOCC1 [drawing 927] | 12.2 |
| COc1cccc2nc(Nc3ccc(Oc4nccnc4C4CCOCC4)cc3)[nH]c12 [drawing 941] | 0.186 |
| COCC(=O)N1CCC(c2nccnc2Oc2ccc(Nc3nc4ccccc4s3)cc2)CC1 [drawing 946] | 0.024 |
| c1ccc2sc(Nc3ccc(Oc4nccnc4C4CCCC4)cc3)nc2c1 [drawing 948] | 4.96 |
| COc1cc(-c2nccnc2Oc2ccc(Nc3nc4ccccc4s3)cc2)ccn1 [drawing 958] | 46.4 |
| COc1ncccc1-c1nccnc1Oc1ccc(Nc2nc3ccc(F)cc3s2)cc1 [drawing 959] | 7.2 |
| COc1cnccc1-c1nccnc1Oc1ccc(Nc2nc3ccccc3s2)cc1 [drawing 961] | 1.91 |
| FCCN1CCC(c2nccnc2Oc2ccc(Nc3nc4ccccc4s3)cc2)CC1 [drawing 962] | 3.24 |
| COc1ncccc1-c1nccnc1Oc1ccc(Nc2nc3cc(F)ccc3s2)cc1 [drawing 964] | 49.7 |
| CC(=O)N1CCC(c2nccnc2Oc2ccc(C(=O)c3nc4ccccc4n3C)cc2)CC1 [drawing 965] | 0.174 |
| CN1CCC(c2nccnc2Oc2ccc(Nc3nc4ccccc4s3)cc2)CC1 [drawing 966] | 5.92 |
| COc1ncccc1-c1nccnc1Oc1ccc(Nc2nc3ccccc3s2)c(F)c1 [drawing 972] | 2.68 |
| Fc1cc(-c2nccnc2Oc2ccc(Nc3nc4ccccc4s3)c(F)c2)ccn1 [drawing 974] | 63.1 |
| CC(=O)N1CCC(c2nccnc2Oc2ccc(C(O)c3nc4ccccc4[nH]3)cc2)CC1 (stereo not shown) [drawing 975] | 19 |
| C[C@@H](F)C(=O)N1CCC(c2nccnc2Oc2ccc(Nc3nc4ccccc4s3)cc2)CC1 [drawing 978] | 0.031 |
| C[C@H](F)C(=O)N1CCC(c2nccnc2Oc2ccc(Nc3nc4ccccc4s3)cc2)CC1 [drawing 979] | 0.156 |
| COCC(=O)N1CCC(c2nccnc2Oc2ccc(C(=O)c3nc4ccccc4n3C)cc2)CC1 [drawing 982] | 0.521 |
| CC(C)(C)OC(=O)N1CC=C(c2nccnc2Oc2ccc(Nc3nc4ccccc4s3)c(F)c2)CC1 [drawing 983] | 70 |
| CC(=O)N1CCC(c2nccnc2Oc2ccc(Nc3nc4ccccc4s3)cc2F)CC1 [drawing 984] | 1.12 |
| O=C(c1ccc(Oc2nccnc2C2CCOCC2)cc1)c1nc2ccc(F)cc2[nH]1 [drawing 987] | 0.593 |
| CC(=O)OCC(=O)N1CCC(c2nccnc2Oc2ccc(C(=O)c3nc4ccccc4[nH]3)cc2)CC1 [drawing 991] | 0.0175 |
| CC(=O)N1CCC(c2nccnc2Oc2ccc(Nc3nc4ccccc4s3)nc2)CC1 [drawing 992] | 0.59 |
| [2H]C([2H])([2H])C(=O)N1CCC(c2nccnc2Oc2ccc(C(=O)c3nc4ccccc4[nH]3)cc2)CC1 [drawing 993] | 0.105 |
| CN(C)CC(=O)N1CCC(c2nccnc2Oc2ccc(Nc3nc4ccccc4s3)cc2)CC1 [drawing 996] | 0.705 |
| N#CCC(=O)N1CCC(c2nccnc2Oc2ccc(C(=O)c3nc4ccccc4[nH]3)cc2)CC1 [drawing 997] | 0.025 |
| O=C1C=C(c2nccnc2Oc2ccc(Nc3nc4ccccc4s3)c(F)c2)CCC1 [drawing 998] | 22.1 |
| O=C1CCC[C@@H](c2nccnc2Oc2ccc(Nc3nc4ccccc4s3)cc2)C1 [drawing 1002] | 1.12 |
